# Assay results reported in PMC3577938 (Organic & biomolecular chemistry, 2013).
# What was measured:
# [1] = tested on: New Zealand White rabbits; assay: Rabbit immunization with bovine α-lactalbumin and antigen-specific ELISA; format: in vivo; details: compared with 8c
# human TLR8 = biological target: T1, human TLR8 (Homo sapiens, UniProt Q9NR97); assay: Human TLR8-specific reporter gene assay; format: cell-based; details: hTLR8 reporter gene assay
# T1 sequence (Q9NR97 27-1041): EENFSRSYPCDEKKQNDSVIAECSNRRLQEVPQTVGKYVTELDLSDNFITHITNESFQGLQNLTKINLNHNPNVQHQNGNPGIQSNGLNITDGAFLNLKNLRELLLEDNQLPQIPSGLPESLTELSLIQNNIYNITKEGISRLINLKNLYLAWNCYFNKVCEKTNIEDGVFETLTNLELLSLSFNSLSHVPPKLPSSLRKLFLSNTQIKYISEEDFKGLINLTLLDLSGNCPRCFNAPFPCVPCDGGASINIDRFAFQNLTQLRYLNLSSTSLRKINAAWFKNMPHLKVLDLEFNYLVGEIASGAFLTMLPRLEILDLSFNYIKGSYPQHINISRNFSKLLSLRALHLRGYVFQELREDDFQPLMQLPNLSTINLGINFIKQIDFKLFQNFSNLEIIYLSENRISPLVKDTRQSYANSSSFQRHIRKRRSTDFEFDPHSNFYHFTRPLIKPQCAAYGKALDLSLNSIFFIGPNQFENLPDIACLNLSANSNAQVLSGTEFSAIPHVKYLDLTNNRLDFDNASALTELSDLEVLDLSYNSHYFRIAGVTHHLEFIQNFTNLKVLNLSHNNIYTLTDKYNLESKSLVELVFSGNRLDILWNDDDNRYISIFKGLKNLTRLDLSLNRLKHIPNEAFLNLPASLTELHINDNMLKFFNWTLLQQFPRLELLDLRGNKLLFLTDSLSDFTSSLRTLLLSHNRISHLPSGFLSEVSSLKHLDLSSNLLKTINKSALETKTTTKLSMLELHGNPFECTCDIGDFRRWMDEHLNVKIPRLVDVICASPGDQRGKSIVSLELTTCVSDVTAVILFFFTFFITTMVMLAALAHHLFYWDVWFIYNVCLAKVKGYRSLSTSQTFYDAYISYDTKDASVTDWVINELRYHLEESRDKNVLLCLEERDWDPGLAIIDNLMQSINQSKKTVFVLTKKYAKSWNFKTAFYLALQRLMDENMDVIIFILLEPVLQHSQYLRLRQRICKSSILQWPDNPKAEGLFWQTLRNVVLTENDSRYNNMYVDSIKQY
# human TLR7 or human TLR8 = format: cell-based; details: primary TLR8/TLR7 reporter gene assays, receptor not given
# [2] = tested on: human peripheral blood mononuclear cells (hPBMC); assay: Cytokine induction in human PBMCs; format: cell-based; details: human PBMCs stimulated 12 h
Compound,consistency of adjuvanticity (confidence intervals of antibody titers) [1],TLR8-agonistic potency/activity (in words) (human TLR8),agonistic activity (in words) (human TLR7 or human TLR8),proinflammatory cytokine induction in hPBMCs (in words) [2]
"CCCCc1nc2c(N)nc3ccccc3c2s1 [Compound 8d, 2-butylthiazolo[4,5-c]quinolin-4-amine]",greater consistency and uniformity,,,
"CCCc1nc2c(NC=O)nc3ccccc3c2s1 [Compound 15d, N-(2-propylthiazolo[4,5-c]quinolin-4-yl)formamide]",,comparable to that of 8c,active,near-complete loss of activity
